According to PubChem BioAssay (NCI):
“And” between values parts separate entries of the source, which are not always exact repeats. Equal entries are not always repeated.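 Assay format: 96-well plates, 48-hour exposure. Abbreviation: GI50, concentration required for 50% inhibition of growth. TGI: total growth inhibition.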

Tests used:
Experiment in all cases: inhibition of tumour cell growth, NCI panel, 48 h
[1] = system: HCT-15 colon
[2] = system: U251 CNS
[3] = system: COLO 205 colon
[4] = system: ACHN renal
[5] = system: SN12C renal
[6] = system: HCC-2998 colon
[7] = system: SW-620 colon
[8] = system: A498 renal
[9] = system: LOX IMVI melanoma
[10] = system: CAKI-1 renal

Row | SMILES | GI50 [1] | TGI [1] [µM] | GI50 [2] | TGI [2] [µM] | GI50 [3] | TGI [3] [µM] | GI50 [4] [µM] | TGI [4] [µM] | GI50 [5] | TGI [5] [µM] | GI50 [6] | TGI [6] [µM] | GI50 [7] | TGI [7] [µM] | GI50 [8] | TGI [8] [µM] | GI50 [9] | TGI [9] | GI50 [10] [µM] | TGI [10] [µM]
1 | Oc1c(C(Nc2ccccn2)c2cccc(Oc3ccccc3)c2)ccc2cccnc12 (configuration not stated) | 0.331 µM | > 100 | 0.362 µM | 14 | 0.492 µM | 14.7 | 0.41 | 7.2 | 0.591 µM | 20.9 | 1.84 µM | 32.6 | 0.422 µM | 20.7 | 0.262 µM | 6.22 | 0.468 µM | 16.7 µM | 0.319 | 10
2 | COC(=O)C1CSC(c2csc(CCN)n2)=N1 (configuration not stated) | – | > 100 | – | > 100 | – | > 100 | – | > 100 | – | > 100 | – | > 100 | – | > 100 | – | – | – | > 100 µM | – | > 100
3 | NC1N=Nc2ccccc21 (configuration not stated) | – | > 100 | – | > 100 | – | > 100 | – | > 100 | – | > 100 | – | > 100 | – | > 100 | – | – | – | > 100 µM | – | > 100
4 | N#CC(C#N)=NNc1ccc2cn[nH]c2c1 | – | > 100 | – | > 100 | – | > 100 | – | > 100 | – | 92.3 | – | – | – | > 100 | – | > 100 | – | > 100 µM | – | 96.4
5 | Cc1cc(=O)oc2cc(OCCCOc3ccc4c(C)cc(=O)oc4c3)ccc12 | – | > 100 | – | > 100 | – | > 100 | – | > 100 | – | > 100 | – | > 100 | – | > 100 | – | > 100 | – | > 100 µM | – | –
6 | O=C(CCCn1c2c(sc3ccccc32)c(=O)n2nnc(-c3ccccc3)c12)NCCc1cnc[nH]1 | 0.505 µM | 2.14 | 0.128 µM | 1.75 | 0.299 µM | 2.35 | 1.37 | 2.94 | < 0.0105 µM | 2.01 | 1.26 µM | 3.41 | 0.0245 µM | 0.362 | 1.41 µM | 2.85 | 0.28 µM | 2.49 µM | – | –
7 | O=C1Nc2ccccc2/C1=C\c1c(-c2ccccc2)nc2sccn12 | 1.08 µM | 8.39 | 2.25 µM | 7.96 | 2.23 µM | 16.4 | 2.13 | 14.5 | 2.75 µM | 14.4 | – | – | 2.16 µM | 27.1 | 0.927 µM | 5.33 | 2.09 µM | 13.8 µM | 1.29 | 4.74
8 | Cc1ccc([P+](Cc2ccccc2)(c2ccccc2)c2ccccc2)cc1 | 19.5 µM | > 100 | 2.14 µM | 24.4 | – | – | 3.95 | > 100 | 2.66 µM | 13.1 | 2.66 µM | 25.1 | 2.66 µM | 49.6 | 1.63 µM | 7.15 | 2.48 µM | 14.3 µM | 5.83 | > 100
9 | O=C(O)CN(c1ccccc1)S(=O)(=O)c1cccc([N+](=O)[O-])c1 | – | > 100 | – | > 100 | – | > 100 | – | > 100 | – | > 100 | – | – | – | > 100 | – | > 100 | – | > 100 µM | – | > 100
10 | c1ccc2c(c1)SC(=C1Sc3ccccc3S1)S2 | – | > 100 | – | > 100 | – | > 100 | – | > 100 | – | > 100 | – | > 100 | – | > 100 | – | – | – | > 100 µM | – | > 100
11 | Cc1ccc([Se](=C(C(=O)c2ccccc2)C(=O)c2ccccc2)c2ccc(C)cc2)cc1 | – | 44.7 | – | 68.2 | – | 43.4 | – | 77.8 | – | 36.7 | – | – | – | > 100 | – | 49 | – | – | – | 57.7
12 | O=C1/C(=C/c2ccc([N+](=O)[O-])s2)Oc2cc(Cl)ccc21 | 0.276 µM | 1.12 | 1.02 µM | 2.21 | – | – | 0.475 | 1.84 | 2.36 µM | > 100 | – | – | 0.217 µM | 0.524 | 29.8 µM | > 85.2 | – | – | – | –
13 | CC(=O)OCC12CN(C#N)C3C4COC(CC41)C1(C(=O)N(C)c4ccccc41)C32 (configuration not stated) | – | 35.5 | – | > 100 | – | 35.8 | – | 38 | – | 73.1 | – | 86.6 | – | 59.6 | – | – | – | 49.1 µM | – | 82.9
14 | COc1ccc2c(c1)CC[C@@H]1C2CC[C@]2(C)C(=O)N(CCN(C)C)C(=O)CC12 (some centres not stated) | – | – | – | > 100 | – | > 100 | – | > 100 | – | > 100 | – | > 100 | – | > 100 | – | > 100 | – | – | – | > 100
15 | O=C([O][Hg][c]1ccccc1)c1ccccc1 | 0.437 µM | 1.79 | 1.38 µM | 2.8 | 1.89 µM | 3.35 | 1.57 | 2.99 | – | – | 2 µM | 3.82 | 0.943 µM | 2.63 | 1.85 µM | 7.33 | 1.38 µM | 3.05 µM | 1.8 | 3.66
16 | COc1ccc2nc3c([N+](=O)[O-])ccc(NCCN(C)C)c3c(N)c2c1 | – | 2.49 | – | 3.13 | – | 2.31 | – | 2.64 | – | 2.76 | – | – | – | 0.562 | – | 4.31 | – | 1.08 µM | – | 3.42
17 | COc1ccc2c(c1)[n+]([O-])c(-c1cccc(Cl)c1)c(N)[n+]2[O-] | – | – | – | > 100 | – | 30.3 | – | > 100 | – | > 100 | – | – | – | > 100 | – | > 100 | – | – | – | > 100
18 | CC1=C/C=C/C(=O)O[C@@H]([C@H](C)[C@H](O)[C@@H](C)NC(=O)C(C)C)[C@H](C)/C=C/C(C)=C/[C@H]2C=CCC[C@@]2(C)\C=C\1 | 0.231 µM and 0.275 µM | 9.15 | 0.0759 µM and 0.0702 µM | 7.18 | 0.322 µM and 0.189 µM | 7.33 | 0.136 | 6.98 | 0.806 µM and 0.275 µM | 8.46 | 0.561 µM and 4.67 µM | 23.5 | 0.705 µM and 0.303 µM | 8.9 | 6.03 µM and 5.25 µM | 32.8 | 0.0479 µM and 0.0688 µM | 0.307 µM and 0.178 µM | – | –
